In ChEMBL document CHEMBL5154928, “Structure-Aided Design, Synthesis, and Biological Evaluation of Potent and Selective Non-Nucleoside Inhibitors Targeting Protein Arginine Methyltransferase 5” (J Med Chem, 2022):

Legend:
[1] = target: T1, Protein arginine N-methyltransferase 5 (Homo sapiens, UniProt O14744); test: Inhibition of PRMT5 (unknown origin) using histone H4 (1 to 21 residues) peptide/SAM as substrate incubated for 210 mins in presence of SAM by AlphaLISA assay
[2] = target: Protein arginine N-methyltransferase 1 (Homo sapiens, UniProt Q99873); test: Inhibition of PRMT1 (unknown origin) using histone H4 (1 to 21 residues) peptide as substrate incubated for 210 mins in presence of SAM by AlphaLISA assay
Chain of Protein arginine N-methyltransferase 1 (Q99873 whole entry, the tested form may be a part): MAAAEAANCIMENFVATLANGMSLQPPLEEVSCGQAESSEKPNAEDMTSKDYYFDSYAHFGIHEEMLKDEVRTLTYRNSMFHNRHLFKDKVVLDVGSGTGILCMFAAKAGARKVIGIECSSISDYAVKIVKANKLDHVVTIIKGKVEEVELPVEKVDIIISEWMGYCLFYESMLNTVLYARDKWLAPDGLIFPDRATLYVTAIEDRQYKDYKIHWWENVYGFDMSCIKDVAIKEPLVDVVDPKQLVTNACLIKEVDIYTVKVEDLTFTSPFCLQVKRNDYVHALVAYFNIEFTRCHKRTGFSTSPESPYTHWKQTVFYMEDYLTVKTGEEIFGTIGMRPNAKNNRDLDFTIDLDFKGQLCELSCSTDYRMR

[3] = Metabolic stability in human liver microsomes assessed as half life incubated for 10 mins measured up to 60 mins in presence of NADPH by LC-MS/MS analysis; type: ADME, Microsome
[4] = Cmax in Sprague-Dawley rat at 10 mg/kg, po measured for 0.25 to 24 hrs by LC-MS/MS analysis; type: ADME, organism-based; set-up: time lower 0.25 hrs, dose 10 mg/kg, time upper 24 hrs, route po; conditions: in vivo
[5] = target: Histone-lysine N-methyltransferase 2B (Homo sapiens, UniProt Q9UMN6); test: Inhibition of MLL4 (unknown origin) using peptide substrate preincubated for 10 mins followed by substrate addition for 4 hrs by HTRF assay
Chain of Histone-lysine N-methyltransferase 2B (Q9UMN6 whole entry): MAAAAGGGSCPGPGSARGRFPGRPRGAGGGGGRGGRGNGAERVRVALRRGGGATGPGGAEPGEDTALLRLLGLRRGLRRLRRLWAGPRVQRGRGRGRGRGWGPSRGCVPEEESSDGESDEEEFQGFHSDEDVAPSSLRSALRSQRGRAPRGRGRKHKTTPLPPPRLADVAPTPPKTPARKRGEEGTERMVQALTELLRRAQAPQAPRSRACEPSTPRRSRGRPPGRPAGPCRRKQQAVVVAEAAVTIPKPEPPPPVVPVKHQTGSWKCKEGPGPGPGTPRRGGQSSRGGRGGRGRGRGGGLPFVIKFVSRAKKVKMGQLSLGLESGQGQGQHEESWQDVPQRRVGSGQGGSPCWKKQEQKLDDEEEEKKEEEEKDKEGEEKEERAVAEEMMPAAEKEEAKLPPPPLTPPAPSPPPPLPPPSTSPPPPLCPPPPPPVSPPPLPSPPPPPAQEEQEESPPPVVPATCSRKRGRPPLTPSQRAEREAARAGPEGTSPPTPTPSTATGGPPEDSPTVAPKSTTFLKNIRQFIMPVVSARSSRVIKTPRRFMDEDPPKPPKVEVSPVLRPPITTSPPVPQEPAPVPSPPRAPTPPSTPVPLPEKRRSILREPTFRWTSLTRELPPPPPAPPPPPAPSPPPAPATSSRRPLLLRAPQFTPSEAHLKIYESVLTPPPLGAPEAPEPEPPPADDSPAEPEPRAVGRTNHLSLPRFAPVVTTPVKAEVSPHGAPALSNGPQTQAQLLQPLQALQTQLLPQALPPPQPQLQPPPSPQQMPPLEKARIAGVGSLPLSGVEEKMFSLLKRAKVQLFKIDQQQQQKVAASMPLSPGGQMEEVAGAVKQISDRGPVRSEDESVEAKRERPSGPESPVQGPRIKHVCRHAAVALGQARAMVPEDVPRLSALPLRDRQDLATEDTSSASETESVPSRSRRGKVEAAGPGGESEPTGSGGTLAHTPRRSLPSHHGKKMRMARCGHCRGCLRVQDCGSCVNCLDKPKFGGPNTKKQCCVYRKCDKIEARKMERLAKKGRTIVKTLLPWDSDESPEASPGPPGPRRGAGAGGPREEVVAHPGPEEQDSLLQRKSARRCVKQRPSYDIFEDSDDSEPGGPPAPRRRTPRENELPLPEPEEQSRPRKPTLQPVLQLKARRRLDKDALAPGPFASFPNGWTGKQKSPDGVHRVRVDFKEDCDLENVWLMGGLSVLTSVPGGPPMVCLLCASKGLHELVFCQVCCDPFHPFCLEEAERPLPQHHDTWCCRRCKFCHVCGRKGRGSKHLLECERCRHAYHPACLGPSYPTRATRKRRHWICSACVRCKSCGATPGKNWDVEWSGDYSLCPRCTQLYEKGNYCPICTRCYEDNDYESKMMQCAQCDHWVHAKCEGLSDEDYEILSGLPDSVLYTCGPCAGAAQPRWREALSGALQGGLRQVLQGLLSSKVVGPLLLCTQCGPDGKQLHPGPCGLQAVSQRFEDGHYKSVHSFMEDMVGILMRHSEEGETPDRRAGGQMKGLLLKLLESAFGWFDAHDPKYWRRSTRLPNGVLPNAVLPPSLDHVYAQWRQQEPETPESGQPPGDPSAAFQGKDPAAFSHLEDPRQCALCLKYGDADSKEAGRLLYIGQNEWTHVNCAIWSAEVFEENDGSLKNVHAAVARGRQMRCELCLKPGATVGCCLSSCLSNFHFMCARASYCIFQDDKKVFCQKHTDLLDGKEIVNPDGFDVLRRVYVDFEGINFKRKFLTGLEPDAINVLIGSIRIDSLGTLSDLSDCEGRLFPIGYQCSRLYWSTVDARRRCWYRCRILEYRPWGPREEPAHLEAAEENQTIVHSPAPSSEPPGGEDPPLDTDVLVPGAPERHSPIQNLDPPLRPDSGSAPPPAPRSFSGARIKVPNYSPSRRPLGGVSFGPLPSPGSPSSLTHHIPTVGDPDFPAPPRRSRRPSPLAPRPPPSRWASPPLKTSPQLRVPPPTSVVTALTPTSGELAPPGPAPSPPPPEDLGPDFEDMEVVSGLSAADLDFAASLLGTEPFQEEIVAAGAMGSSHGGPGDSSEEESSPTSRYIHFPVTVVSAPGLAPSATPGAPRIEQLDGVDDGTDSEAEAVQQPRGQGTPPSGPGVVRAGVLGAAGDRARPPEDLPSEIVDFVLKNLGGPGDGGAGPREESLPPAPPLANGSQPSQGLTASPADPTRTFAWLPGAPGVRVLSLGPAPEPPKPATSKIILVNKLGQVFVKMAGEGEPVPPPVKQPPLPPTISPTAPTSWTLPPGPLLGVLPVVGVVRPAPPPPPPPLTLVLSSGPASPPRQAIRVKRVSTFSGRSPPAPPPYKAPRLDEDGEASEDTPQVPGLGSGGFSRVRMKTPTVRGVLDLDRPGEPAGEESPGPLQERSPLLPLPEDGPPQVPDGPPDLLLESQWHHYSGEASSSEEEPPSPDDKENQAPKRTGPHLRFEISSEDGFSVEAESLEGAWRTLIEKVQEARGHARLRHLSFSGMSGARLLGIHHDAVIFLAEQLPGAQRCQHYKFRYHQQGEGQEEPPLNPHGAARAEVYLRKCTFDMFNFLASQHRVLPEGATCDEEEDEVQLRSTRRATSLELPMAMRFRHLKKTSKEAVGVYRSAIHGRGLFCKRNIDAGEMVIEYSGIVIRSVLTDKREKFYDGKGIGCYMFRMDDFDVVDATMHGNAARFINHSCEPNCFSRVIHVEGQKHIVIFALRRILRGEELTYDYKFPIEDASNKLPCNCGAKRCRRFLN

A-375 [6] = test: Induction of apoptosis in human A-375 cells assessed as total apoptotic cells at 0.5 uM incubated for 48 hrs by Annexin-V FITC/PI staining based flow cytometry analysis relative to control; type: functional
[7] = target: T1, Protein arginine N-methyltransferase 5; test: Displacement of [3H]-SAM from PRMT5 (unknown origin) using peptide substrate preincubated for 15 mins followed by substrate addition for 60 mins by radioactive biochemical assay
[8] = Half life in Sprague-Dawley rat at 3 mg/kg, iv measured for 0.25 to 24 hrs by LC-MS/MS analysis; type: ADME, organism-based; conditions: in vivo, time 0.25-24 hrs
A-375 [9] = test: Induction of apoptosis in human A-375 cells assessed as total apoptotic cells at 4 uM incubated for 48 hrs by Annexin-V FITC/PI staining based flow cytometry analysis relative to control; type: functional
[10] = AUC (0 to infinity) in Sprague-Dawley rat at 10 mg/kg, po measured for 0.25 to 24 hrs by LC-MS/MS analysis; type: ADME, organism-based; set-up: dose 10 mg/kg, time upper 24 hrs, time lower 0.25 hrs, route po; conditions: in vivo
[11] = Oral bioavailability in Sprague-Dawley rat at 10 mg/kg, measured for 0.25 to 24 hrs by LC-MS/MS analysis; type: ADME, organism-based; conditions: in vivo, time 0.25-24 hrs
A-375 [12] = test: Induction of apoptosis in human A-375 cells assessed as total apoptotic cells at 1 uM incubated for 48 hrs by Annexin-V FITC/PI staining based flow cytometry analysis relative to control; type: functional
[13] = Metabolic stability in mouse liver microsomes assessed as half life measured up to 60 mins in presence of NADPH by LC-MS/MS analysis; type: ADME, Microsome
[14] = Metabolic stability in mouse liver microsomes assessed as clearance measured up to 60 mins in presence of NADPH by LC-MS/MS analysis; type: ADME, Microsome; conditions: 1 h
[15] = Half life in Sprague-Dawley rat at 10 mg/kg, po measured for 0.25 to 24 hrs by LC-MS/MS analysis; type: ADME, organism-based; conditions: in vivo, time 0.25-24 hrs
[16] = Volume of distribution at steady state in Sprague-Dawley rat at 3 mg/kg, iv measured for 0.25 to 24 hrs by LC-MS/MS analysis; type: ADME, organism-based; conditions: in vivo, time 0.25-24 hrs, read-out: Vdss
[17] = Metabolic stability in rat liver microsomes assessed as half life measured up to 60 mins in presence of NADPH by LC-MS/MS analysis; type: ADME, Microsome
[18] = Clearance in Sprague-Dawley rat at 3 mg/kg, iv measured for 0.25 to 24 hrs by LC-MS/MS analysis; type: ADME, organism-based; conditions: in vivo, time 0.25-24 hrs
[19] = Metabolic stability in rat liver microsomes assessed as clearance measured up to 60 mins in presence of NADPH by LC-MS/MS analysis; type: ADME, Microsome; conditions: 1 h
A-375 [20] = test: Antitumor activity against human A-375 cells xenografted in BALB/c mouse assessed as tumor growth inhibition at 75 mg/kg, po qd for 19 days and measured every 3 days; type: functional; conditions: A-375, 456 h, time 19 day, read-out: TGI
A-375 [21] = test: Induction of apoptosis in human A-375 cells assessed as total apoptotic cells at 2 uM incubated for 48 hrs by Annexin-V FITC/PI staining based flow cytometry analysis relative to control; type: functional
[22] = Toxicity in BALB/c mouse xenografted with human A375 cells assessed as change in body weight at 75 mg/kg, po qd for 19 days and measured every 3 days; type: organism-based, A-375; conditions: in vivo, 456 h, time 19 day
[23] = target: Histone-lysine N-methyltransferase 2A (Homo sapiens, UniProt Q03164); test: Inhibition of MLL1 (unknown origin) using peptide substrate preincubated for 10 mins followed by substrate addition for 4 hrs by HTRF assay

T1 sequence (O14744 whole entry, the tested form may be a part): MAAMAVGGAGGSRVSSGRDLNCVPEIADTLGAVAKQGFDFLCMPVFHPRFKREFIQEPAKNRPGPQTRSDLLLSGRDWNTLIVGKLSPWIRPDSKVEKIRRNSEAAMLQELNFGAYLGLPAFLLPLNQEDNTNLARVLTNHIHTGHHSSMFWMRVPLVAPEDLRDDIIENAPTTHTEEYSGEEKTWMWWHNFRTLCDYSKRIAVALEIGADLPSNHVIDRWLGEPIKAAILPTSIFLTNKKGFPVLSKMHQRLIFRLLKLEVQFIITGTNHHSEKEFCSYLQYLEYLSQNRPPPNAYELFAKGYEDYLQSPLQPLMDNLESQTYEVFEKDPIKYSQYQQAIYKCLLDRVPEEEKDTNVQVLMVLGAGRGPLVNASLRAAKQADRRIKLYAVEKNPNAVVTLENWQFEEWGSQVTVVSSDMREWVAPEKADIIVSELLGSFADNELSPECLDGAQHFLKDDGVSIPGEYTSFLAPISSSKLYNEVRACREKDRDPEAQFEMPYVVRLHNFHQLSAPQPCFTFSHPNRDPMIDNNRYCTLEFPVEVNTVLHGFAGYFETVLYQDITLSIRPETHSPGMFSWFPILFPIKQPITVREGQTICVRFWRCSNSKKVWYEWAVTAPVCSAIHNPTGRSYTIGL

C[C@H](Oc1ccc(-c2cc3c(C4=CCNCC4)ncnc3[nH]2)cc1)c1ccccc1
IC50 [1]: 47 nM | IC50 [2]: 3250 nM | half-life [3]: 0.697 h | Cmax [4]: 8.22 ng/mL | IC50 [5]: > 20000 nM | Activity (A-375 [6]): 5.58% | IC50 [7]: 23.9 nM | half-life [8]: 2.58 h | Activity (A-375 [9]): 95.9% | AUC [10]: 65.3 h/ng/mL | bioavailability [11]: 7.25% | Activity (A-375 [12]): 14.14% | half-life [13]: 1.14 h | CLH [14]: 30.7 mL/min/g | half-life [15]: 7.51 h | Vd [16]: 62.5 L/kg | half-life [17]: 9.25 min | clearance [18]: 310 mL/min/kg | CLH [19]: 227 mL/min/g | inhibition in vivo at 75 mg/kg (A-375 [20]): 73% | Activity (A-375 [21]): 66.39% | Activity [22]: Non-Toxic | IC50 [23]: > 20000 nM
